The source of these data is US10538498B2, “1,3,4-oxadiazole sulfonamide derivative compounds as histone deacetylase 6 inhibitor, and the pharmaceutical composition comprising the same” (Chong Kun Dang Pharmaceutical Corp., priority 2015, dated 2020).

In the assay the target is T1, human recombinant HDAC6 (Homo sapiens, UniProt Q9UBN7).
T1 construct: purchased Calbiochem 382180
T1 sequence (Q9UBN7 1-1215): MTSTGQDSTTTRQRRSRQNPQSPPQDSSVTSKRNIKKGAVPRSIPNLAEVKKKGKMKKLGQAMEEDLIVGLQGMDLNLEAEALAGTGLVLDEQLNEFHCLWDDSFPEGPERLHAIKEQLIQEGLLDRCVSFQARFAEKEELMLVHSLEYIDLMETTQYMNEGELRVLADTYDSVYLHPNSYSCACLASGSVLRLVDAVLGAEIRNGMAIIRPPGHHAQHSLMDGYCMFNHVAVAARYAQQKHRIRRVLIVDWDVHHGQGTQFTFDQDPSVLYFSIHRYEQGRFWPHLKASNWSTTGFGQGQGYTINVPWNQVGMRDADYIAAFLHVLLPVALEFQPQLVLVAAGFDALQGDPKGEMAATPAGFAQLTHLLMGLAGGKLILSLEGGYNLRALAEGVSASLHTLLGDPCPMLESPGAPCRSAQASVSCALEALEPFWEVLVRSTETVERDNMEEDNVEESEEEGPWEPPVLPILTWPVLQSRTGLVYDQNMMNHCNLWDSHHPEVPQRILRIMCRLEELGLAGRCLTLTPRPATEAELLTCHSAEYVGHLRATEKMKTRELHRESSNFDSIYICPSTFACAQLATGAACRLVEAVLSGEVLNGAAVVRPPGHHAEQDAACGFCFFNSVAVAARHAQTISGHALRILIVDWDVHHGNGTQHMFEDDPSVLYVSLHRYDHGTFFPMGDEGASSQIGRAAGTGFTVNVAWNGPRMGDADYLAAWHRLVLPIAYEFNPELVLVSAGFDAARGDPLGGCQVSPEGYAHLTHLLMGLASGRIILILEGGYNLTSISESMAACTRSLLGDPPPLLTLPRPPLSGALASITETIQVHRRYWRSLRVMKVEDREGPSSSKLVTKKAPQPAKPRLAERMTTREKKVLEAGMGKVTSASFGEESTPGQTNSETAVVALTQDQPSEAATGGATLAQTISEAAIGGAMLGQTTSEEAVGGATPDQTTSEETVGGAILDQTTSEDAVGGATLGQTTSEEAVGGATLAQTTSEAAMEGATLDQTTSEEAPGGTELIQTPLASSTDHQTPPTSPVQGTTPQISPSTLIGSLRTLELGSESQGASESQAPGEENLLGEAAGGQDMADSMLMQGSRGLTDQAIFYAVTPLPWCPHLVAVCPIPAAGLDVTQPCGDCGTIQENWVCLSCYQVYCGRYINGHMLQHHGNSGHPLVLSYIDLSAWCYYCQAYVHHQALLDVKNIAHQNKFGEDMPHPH
Briefly: HDAC6 enzyme activity inhibition assay (HDAC Fluorimetric Drug Discovery Kit). The class given is biochemical. The note with it: for HDAC6 selectivity (fold): HDAC1 vs HDAC6; for IC50: same protocol as the HDAC1 enzyme activity test. The method in brief: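 Both isoforms are run by an identical fluorimetric protocol: deacetylation of 10 μM Fluor de Lys-SIRT1 substrate by 0.3 μg recombinant enzyme over 60 min at 30° C, in the presence of 5-fold compound dilutions. Signal is developed for 30 min and read at Ex 360/Em 460 to derive IC50.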

A word on the IC50: it is the point on the concentration scale where inhibition reaches its midpoint. With `O=S(=O)(CCN1CC[C@@H](CO)C1)N(Cc1ccc(-c2nnc(C(F)F)o2)cc1)c1ccccc1` [Compound 11805, (R)—N-(4-(5-(difluoromethyl)-1,3,4-oxadiazol-2-yl)benzyl)-2-(3-(hydroxymethyl)pyrrolidin-1-yl)-N-phenylethane-1-sulfonamide], the “HDAC6 selectivity (fold)” value is recorded as 3021 fold and the half-inhibitory concentration (IC50) was found to be 33.1 nM.

`Cc1nccn1CCS(=O)(=O)N(Cc1ccc(-c2nnc(C(F)F)o2)cc1)c1ccccc1` [Compound 11806, N-(4-(5-(difluoromethyl)-1,3,4-oxadiazol-2-yl)benzyl)-2-(2-methyl-1H-imidazol-1-yl)-N-phenylethane-1-sulfonamide]: the “HDAC6 selectivity (fold)” value was determined as 4000 fold and the IC50 amounted to 25 nM.

As for `Cc1cncn1CCS(=O)(=O)N(Cc1ccc(-c2nnc(C(F)F)o2)cc1)c1ccccc1` [Compound 11807, N-(4-(5-(difluoromethyl)-1,3,4-oxadiazol-2-yl)benzyl)-2-(5-methyl-1H-imidazol-1-yl)-N-phenylethane-1-sulfonamide], the “HDAC6 selectivity (fold)” value was determined as 1584 fold and the IC50 was 63.1 nM.

For the compound `O=S(=O)(CCn1cnc(CO)c1)N(Cc1ccc(-c2nnc(C(F)F)o2)cc1)c1ccccc1` [Compound 11808, N-(4-(5-(difluoromethyl)-1,3,4-oxadiazol-2-yl)benzyl)-2-(4-(hydroxymethyl)-1H-imidazol-1-yl)-N-phenylethane-1-sulfonamide], the “HDAC6 selectivity (fold)” value came out at 2881 fold and the concentration for half-maximal inhibition (IC50) came to 34.7 nM.

Regarding `O=S(=O)(CCn1cncn1)N(Cc1ccc(-c2nnc(C(F)F)o2)cc1)c1ccccc1` [Compound 11809, N-(4-(5-(difluoromethyl)-1,3,4-oxadiazol-2-yl)benzyl)-N-phenyl-2-(1H-1,2,4-triazol-1-yl)ethane-1-sulfonamide], the “HDAC6 selectivity (fold)” value stood at 3222 fold and the IC50 is 30.1 nM.

For the compound `O=S(=O)(CCN1CCC(CO)CC1)N(Cc1ccc(-c2nnc(C(F)F)o2)cc1)c1ccccc1` [Compound 11810, N-(4-(5-(difluoromethyl)-1,3,4-oxadiazol-2-yl)benzyl)-2-(4-(hydroxymethyl)piperidin-1-yl)-N-phenylethane-1-sulfonamide], the “HDAC6 selectivity (fold)” value came to 2793 fold and the IC50 stood at 35.8 nM.

On to `O=S(=O)(CCN1CCCC(CO)C1)N(Cc1ccc(-c2nnc(C(F)F)o2)cc1)c1ccccc1` (centres unmarked) [Compound 11811, N-(4-(5-(difluoromethyl)-1,3,4-oxadiazol-2-yl)benzyl)-2-(3-(hydroxymethyl)piperidin-1-yl)-N-phenylethane-1-sulfonamide], for which the “HDAC6 selectivity (fold)” value is on record as 2358 fold and the IC50 is 42.4 nM.

On to `NC(=O)[C@@H]1CCCN1CCS(=O)(=O)N(Cc1ccc(-c2nnc(C(F)F)o2)cc1)c1ccccc1` [Compound 11812, (S)-1-(2-(N-(4-(5-(difluoromethyl)-1,3,4-oxadiazol-2-yl)benzyl)-N-phenylsulfamoyl)ethyl)pyrrolidine-2-carboxamide], for which the “HDAC6 selectivity (fold)” value is 3039 fold and the IC50 came out at 32.9 nM.

As to `NC(=O)[C@H]1CCCN1CCS(=O)(=O)N(Cc1ccc(-c2nnc(C(F)F)o2)cc1)c1ccccc1` [Compound 11813, (R)-1-(2-(N-(4-(5-(difluoromethyl)-1,3,4-oxadiazol-2-yl)benzyl)-N-phenylsulfamoyl)ethyl)pyrrolidine-2-carboxamide], the “HDAC6 selectivity (fold)” value is on record as 2932 fold and the IC50 turned out to be 34.1 nM.

Take `CC(C)(C)OC(=O)N1CC2(CCN(CCS(=O)(=O)N(Cc3ccc(-c4nnc(C(F)F)o4)cc3)c3ccccc3)CC2)C1` [Compound 11814, tert-butyl 7-(2-(N-(4-(5-(difluoromethyl)-1,3,4-oxadiazol-2-yl)benzyl)-N-phenylsulfamoyl)ethyl)-2,7-diazaspiro[3.5]nonane-2-carboxylate]: the “HDAC6 selectivity (fold)” value was 88 fold and the IC50 came out at 1130 nM.

As for `O=S(=O)(CCN1CCC(F)(F)C1)N(Cc1ccc(-c2nnc(C(F)F)o2)cc1)c1ccccc1` [Compound 11815, N-(4-(5-(difluoromethyl)-1,3,4-oxadiazol-2-yl)benzyl)-2-(3,3-difluoropyrrolidin-1-yl)-N-phenylethane-1-sulfonamide], the “HDAC6 selectivity (fold)” value stood at 1326 fold and the IC50 came to 75.4 nM.

In the case of `O=S(=O)(CCn1ccnc1)N(Cc1ccc(-c2nnc(C(F)F)o2)cc1)c1ccccc1` [Compound 11816, N-(4-(5-(difluoromethyl)-1,3,4-oxadiazol-2-yl)benzyl)-2-(1H-imidazol-1-yl)-N-phenylethane-1-sulfonamide], the “HDAC6 selectivity (fold)” value is listed as 2695 fold and the IC50 stood at 37.1 nM.

On to `O=S(=O)(CCN1CCC[C@H](O)C1)N(Cc1ccc(-c2nnc(C(F)F)o2)cc1)c1ccccc1` [Compound 11817, (S)—N-(4-(5-(difluoromethyl)-1,3,4-oxadiazol-2-yl)benzyl)-2-(3-hydroxypiperidin-1-yl)-N-phenylethane-1-sulfonamide], for which the “HDAC6 selectivity (fold)” value was found to be 1718 fold and the IC50 worked out at 58.2 nM.

Consider `N#CC1CCN(CCS(=O)(=O)N(Cc2ccc(-c3nnc(C(F)F)o3)cc2)c2ccccc2)CC1` [Compound 11818, 2-(4-cyanopiperidin-1-yl)-N-(4-(5-(difluoromethyl)-1,3,4-oxadiazol-2-yl)benzyl)-N-phenylethane-1-sulfonamide], for which the “HDAC6 selectivity (fold)” value amounted to 1647 fold and the IC50 was 60.7 nM.

Regarding `O=S(=O)(CCN1CCC(c2ccc(F)cc2)CC1)N(Cc1ccc(-c2nnc(C(F)F)o2)cc1)c1ccccc1` [Compound 11819, N-(4-(5-(difluoromethyl)-1,3,4-oxadiazol-2-yl)benzyl)-2-(4-(4-fluorophenyl)piperidin-1-yl)-N-phenylethane-1-sulfonamide], the “HDAC6 selectivity (fold)” value is listed as 284 fold and the IC50 came to 351 nM.

Consider `COC(=O)C1CN(CCS(=O)(=O)N(Cc2ccc(-c3nnc(C(F)F)o3)cc2)c2ccccc2)C1` [Compound 11820, methyl 1-(2-(N-(4-(5-(difluoromethyl)-1,3,4-oxadiazol-2-yl)benzyl)-N-phenylsulfamoyl)ethyl)azetidine-3-carboxylate], for which the “HDAC6 selectivity (fold)” value is reported as 1652 fold and the IC50 was 60.5 nM.

Consider `O=S(=O)(CCN1CC(F)(F)C1)N(Cc1ccc(-c2nnc(C(F)F)o2)cc1)c1ccccc1` [Compound 11821, 2-(3,3-difluoroazetidin-1-yl)-N-(4-(5-(difluoromethyl)-1,3,4-oxadiazol-2-yl)benzyl)-N-phenylethane-1-sulfonamide], for which the “HDAC6 selectivity (fold)” value was 747 fold and the IC50 is 134 nM.

For the compound `O=S(=O)(CCN1CCC(O)CC1)N(Cc1ccc(-c2nnc(C(F)F)o2)cc1)c1ccccc1` [Compound 11822, N-(4-(5-(difluoromethyl)-1,3,4-oxadiazol-2-yl)benzyl)-2-(4-hydroxypiperidin-1-yl)-N-phenylethane-1-sulfonamide], the “HDAC6 selectivity (fold)” value is 1365 fold and the IC50 was 73.3 nM.

`O=C(CO)N1CC(N2CCC(S(=O)(=O)N(Cc3ccc(-c4nnc(C(F)F)o4)cc3)c3cccc(Cl)c3)CC2)C1` [Compound 11836, N-(3-chlorophenyl)-N-(4-(5-(difluoromethyl)-1,3,4-oxadiazol-2-yl)benzyl)-1-(1-(2-hydroxyacetyl)azetidin-3-yl)piperidine-4-sulfonamide]: the “HDAC6 selectivity (fold)” value stood at 3147 fold and the IC50 was determined as 31.8 nM.
